Values quoted from earlier work, collected in US20080003300A1, “Compostions containing Mg/Zn/F-CaP plus inhibitors of pro-inflammatory Cytokines (a combination of a Free-B-Ring flavonoids and a flavan) for osteoporosis prevention, therapy and treatment of bone diseases” (priority 2006, published 2008).

Tests used:
[1] = biological target: T1, COX-2 (Ovis aries, UniProt P79208); details: Noreen et al. (1998)
T1 sequence (P79208 17-603): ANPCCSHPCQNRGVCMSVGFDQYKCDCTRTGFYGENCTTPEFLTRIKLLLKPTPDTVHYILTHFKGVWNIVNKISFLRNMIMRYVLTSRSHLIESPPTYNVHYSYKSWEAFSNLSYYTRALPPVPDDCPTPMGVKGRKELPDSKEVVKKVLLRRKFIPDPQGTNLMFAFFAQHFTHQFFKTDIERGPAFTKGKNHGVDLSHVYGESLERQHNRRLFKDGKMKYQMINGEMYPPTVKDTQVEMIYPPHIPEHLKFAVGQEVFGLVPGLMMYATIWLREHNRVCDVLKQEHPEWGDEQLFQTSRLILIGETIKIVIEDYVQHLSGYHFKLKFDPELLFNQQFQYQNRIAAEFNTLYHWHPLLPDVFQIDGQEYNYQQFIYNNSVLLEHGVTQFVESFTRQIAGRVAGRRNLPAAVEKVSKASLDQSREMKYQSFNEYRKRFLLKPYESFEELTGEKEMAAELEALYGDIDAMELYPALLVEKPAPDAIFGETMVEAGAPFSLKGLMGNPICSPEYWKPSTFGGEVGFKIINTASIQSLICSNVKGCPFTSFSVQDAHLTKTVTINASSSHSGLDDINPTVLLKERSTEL

[2] = system: COX-2 gene transcription in human colon cancer DLD-1 cells; details: Mutoh et al. (2000)
[3] = system: prostaglandin endoperoxide synthase; details: Kalkbrenner et al. (1992)

In the case of `Oc1cc(O)c2c(c1)O[C@H](c1ccc(O)c(O)c1)[C@@H](O)C2` [(+)-catechin], the “selectivity for COX-2” value [1] is given as “no selectivity for COX-2”.
In the case of `Oc1cc(O)c2c(c1)OC(c1ccc(O)c(O)c1)C(O)C2` (stereo not drawn) [Catechin], the IC50 [2] is listed as 415 µM and the IC50 [3] is listed as 40 µM.
